Experimental data: patent US4593017A, “Methods of treating patients using a pharmaceutical preparation containing an α-endorfine fragment” (Akzo N.V., priority 1982, dated 1986)
Where a SMILES comes first, the peptide text is derived from it.

Legend:
rats = assay: Apomorphine induced stereotyped sniffing; type: in vivo; conditions: for (Stereotyped) sniffing: after 1 h apomorphine 250 μg/kg s.c., tested 20 min later, measured for 4 min
Description: Subcutaneous treatment of rats with apomorphine (250 μg/kg) elicits hyperlocomotion and especially stereotyped sniffing behavoir. Increase of this stereotyped sniffing by pretreatment with the drug to be tested in considered to be an indication for dopaminergic activity.
Groups of rats were subcutaneously injected with placebo (0.5 ml saline), (2-9)-α-endorfine (50 μg) or (3-9)-α-endorfine (50 μg) and after 1 h. with apomorphine (250 μg/kg). An additional group of rats received two placebo (0.5 ml saline) injections. Twenty minutes after the last injection the rats were tested in a small open field and the duration of stereotyped sniffing was measured for 4 min.

[1] = pole-jumping test; delaying extinction of conditioned avoidance behavior; Pharmac. Ther. 16, 67, 1982; cited from earlier work
[2] = tested on: AVP (arg-vasopressin) levels of eye plexus plasma; assay: Vasopressin release: AVP levels of eye plexus plasma (RIA); type: in vivo, Female Wistar rats; conditions: 10 μg per rat subcutaneously
Description: The effect of (2-9)-α-endorfine on AVP (arg-vasopressin) levels of eye plexus plasma was tested.
Female Wistar rats (140-160 g) were anaesthetized with ether for a strictly controlled period of 45 seconds. Samples of eye plexus blood were taken and stored in cooled plastic tubes to which heparin was added. The tubes were centrifuged at 4° C. in order to obtain the plasma. The immunoreactive AVP was directly measured in 20 μl of eye plexus plasma with the aid of RIA (radio-immuno-assay) methods.
The rats were treated with placebo or with 10 μg of (2-9)-α-endorfine per rat, injected subcutaneously.

SMILES: CN1CCc2cccc3c2[C@H]1Cc1ccc(O)c(O)c1-3 [apomorphine, reference compound]
- (Stereotyped) sniffing (rats; placebo (0.5 ml saline) pretreatment): 121.4 s

SMILES: CSCC[C@H](NC(=O)[C@H](Cc1ccccc1)NC(=O)CNC(=O)CN)C(=O)N[C@H](C(=O)N[C@@H](CO)C(=O)N[C@@H](CCC(=O)O)C(=O)N[C@@H](CCCCN)C(=O)O)[C@@H](C)O [(2-9)-α-endorfine, H-Gly-Gly-L-Phe-L-Met-L-Thr-L-Ser-L-Glu-L-Lys-OH] (H-GGFMTSEK-OH)
- times less active than α-endorfine [1]: 10 times
- AVP levels ([2]; 2 minutes after injection): 667 pg/mL
- AVP levels ([2]; 5 minutes after injection): 92 pg/mL
- AVP levels ([2]; 10 minutes after injection): 78 pg/mL
- (Stereotyped) sniffing (rats; pretreatment 50 μg s.c.): 158.0 s
- potentiation of apomorphine-induced stereotyped sniffing (rats; pretreatment 50 μg, apomorphine 250 μg/kg s.c.): potentiated
